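Dose response: 5 concentrations. Exposure: 48 h. Format: 96-well plates. Endpoint: linear interpolation; highest concentration if not reached. TGI: concentration producing complete growth inhibition.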
Tests used:
Assay in all cases: NCI tumour cell line growth inhibition, 48 h
[1] = test system: A498 renal
[2] = test system: A549 NSCLC
[3] = test system: CAKI-1 renal
[4] = test system: CCRF-CEM leukemia
[5] = test system: COLO 205 colon
[6] = test system: DLD-1 colon
[7] = test system: DMS 114 small cell lung
[8] = test system: DMS 273 small cell lung
[9] = test system: EKVX NSCLC
[10] = test system: HCC-2998 colon
[11] = test system: HCT-116 colon
[12] = test system: HCT-15 colon
[13] = test system: HL-60(TB) leukemia
[14] = test system: HOP-18 NSCLC
[15] = test system: HOP-62 NSCLC
[16] = test system: HOP-92 NSCLC
[17] = test system: HT29 colon
[18] = test system: IGROV1 ovarian
[19] = test system: K-562 leukemia
[20] = test system: KM12 colon
[21] = test system: KM20L2 colon
[22] = test system: LOX IMVI melanoma
[23] = test system: M19-MEL melanoma
[24] = test system: MCF7 breast
[25] = test system: MOLT-4 leukemia
[26] = test system: NCI-H226 lung
[27] = test system: NCI-H23 lung
[28] = test system: NCI-H460 lung
[29] = test system: NCI-H522 lung
[30] = test system: NCI/ADR-RES ovarian
[31] = test system: OVCAR-3 ovarian
[32] = test system: OVCAR-4 ovarian
[33] = test system: OVCAR-5 ovarian
[34] = test system: OVCAR-8 ovarian
[35] = test system: P388 leukemia
[36] = test system: P388/ADR leukemia
[37] = test system: RPMI-8226 leukemia
[38] = test system: RXF 393 renal
[39] = test system: SF-268 CNS
[40] = test system: SF-295 CNS
[41] = test system: SF-539 CNS
[42] = test system: SK-MEL-2 melanoma
[43] = test system: SK-MEL-28 melanoma
[44] = test system: SK-MEL-5 melanoma
[45] = test system: SK-OV-3 ovarian
[46] = test system: SN12C renal
[47] = test system: SN12K1 renal
[48] = test system: SNB-19 CNS
[49] = test system: SNB-75 CNS
[50] = test system: SNB-78 CNS
[51] = test system: SW-620 colon
[52] = test system: U251 CNS
[53] = test system: UACC-257 melanoma
[54] = test system: UACC-62 melanoma
[55] = test system: UO-31 renal
[56] = test system: XF 498 CNS
[57] = test system: 786-0 renal
[58] = test system: ACHN renal
[59] = test system: BT-549 breast
[60] = test system: DU-145 prostate
[61] = test system: HS 578T breast
[62] = test system: LXFL 529 NSCLC
[63] = test system: M14 melanoma
[64] = test system: MALME-3M melanoma
[65] = test system: MDA-MB-231 breast
[66] = test system: MDA-MB-435
[67] = test system: MDA-N
[68] = test system: PC-3 prostate
[69] = test system: RXF-631 renal
[70] = test system: SR leukemia
[71] = test system: T-47D breast
[72] = test system: TK-10 renal

## COc1ccc(-c2nc3ccc([N+](=O)[O-])cc3c(=O)[nH]2)cc1
[1]
  TGI: > 100 µM
[2]
  TGI: > 100 µM
[3]
  TGI: > 86.7 µM
[4]
  TGI: > 100 µM
[5]
  TGI: > 100 µM
[6]
  TGI: > 100 µM
[7]
  TGI: > 100 µM
[8]
  TGI: > 100 µM
[9]
  TGI: > 100 µM
[10]
  TGI: > 100 µM
[11]
  TGI: > 79.4 µM
[12]
  TGI: > 100 µM
[13]
  TGI: > 100 µM
[14]
  TGI: > 100 µM
[15]
  TGI: > 67.7 µM
[16]
  TGI: 45.8 µM
[17]
  TGI: > 100 µM
[18]
  TGI: 71.5 µM
[19]
  TGI: > 100 µM
[20]
  TGI: > 100 µM
[21]
  TGI: > 100 µM
[22]
  TGI: > 100 µM
[23]
  TGI: > 100 µM
[24]
  TGI: > 100 µM
[25]
  TGI: > 100 µM
[26]
  TGI: 59.1 µM
[27]
  TGI: > 86.8 µM
[28]
  TGI: > 100 µM
[29]
  TGI: 90.5 µM
[30]
  TGI: > 100 µM
[31]
  TGI: 64.3 µM
[32]
  TGI: 33.4 µM
[33]
  TGI: > 100 µM
[34]
  TGI: > 72.2 µM
[35]
  TGI: > 100 µM
[36]
  TGI: > 100 µM
[37]
  TGI: > 100 µM
[38]
  TGI: > 75.6 µM
[39]
  TGI: 67.3 µM
[40]
  TGI: > 63.3 µM
[41]
  TGI: 29.7 µM
[42]
  TGI: > 100 µM
[43]
  TGI: > 100 µM
[44]
  TGI: > 100 µM
[45]
  TGI: 29.3 µM
[46]
  TGI: > 100 µM
[47]
  TGI: > 86.5 µM
[48]
  TGI: 55.3 µM
[49]
  TGI: 31 µM
[50]
  TGI: 71.8 µM
[51]
  TGI: > 100 µM
[52]
  TGI: > 64.3 µM
[53]
  TGI: > 100 µM
[54]
  TGI: > 100 µM
[55]
  TGI: > 100 µM
[56]
  TGI: 46.3 µM

## CN1C(c2ccccc2)CC(=NOCc2ccccc2)CC1c1ccccc1 (stereo not given)
[57]
  TGI: 53.7 µM
[1]
  TGI: 68.8 µM
[2]
  TGI: 43 µM
[58]
  TGI: 69.1 µM
[59]
  TGI: 30.6 µM
[3]
  TGI: > 80 µM
[4]
  TGI: 70.8 µM
[5]
  TGI: 88.6 µM
[6]
  TGI: > 100 µM
[7]
  TGI: 33.1 µM
[8]
  TGI: > 100 µM
[60]
  TGI: > 100 µM
[9]
  TGI: > 69.3 µM
[10]
  TGI: > 100 µM
[11]
  TGI: 37.6 µM
[12]
  TGI: 49.2 µM
[13]
  TGI: 48.8 µM
[14]
  TGI: > 100 µM
[15]
  TGI: > 73.3 µM
[16]
  TGI: 81 µM
[61]
  TGI: > 73.3 µM
[17]
  TGI: 62.2 µM
[18]
  TGI: 62.1 µM
[19]
  TGI: 44.3 µM
[20]
  TGI: 47.9 µM
[21]
  TGI: > 100 µM
[22]
  TGI: 29.9 µM
[62]
  TGI: 30.8 µM
[63]
  TGI: > 78 µM
[23]
  TGI: > 100 µM
[64]
  TGI: > 87.8 µM
[24]
  TGI: > 56.8 µM
[65]
  TGI: > 100 µM
[66]
  TGI: 39.2 µM
[67]
  TGI: > 56.3 µM
[25]
  TGI: 71.2 µM
[26]
  TGI: 84.8 µM
[27]
  TGI: 71.5 µM
[28]
  TGI: 39.9 µM
[29]
  TGI: 56 µM
[30]
  TGI: 42.4 µM
[31]
  TGI: 58.7 µM
[32]
  TGI: 48.9 µM
[33]
  TGI: > 100 µM
[34]
  TGI: 44.9 µM
[68]
  TGI: > 66.3 µM
[37]
  TGI: > 100 µM
[38]
  TGI: > 84.7 µM
[69]
  TGI: > 61.9 µM
[39]
  TGI: 50.4 µM
[40]
  TGI: > 74.8 µM
[41]
  TGI: > 75.6 µM
[42]
  TGI: > 95.4 µM
[43]
  TGI: > 76.3 µM
[44]
  TGI: 70.6 µM
[45]
  TGI: > 96.9 µM
[46]
  TGI: 62 µM
[48]
  TGI: > 56.2 µM
[49]
  TGI: 62.1 µM
[50]
  TGI: > 100 µM
[70]
  TGI: 87.1 µM
[51]
  TGI: > 75.4 µM
[71]
  TGI: 36 µM
[72]
  TGI: 70.9 µM
[52]
  TGI: 55.2 µM
[53]
  TGI: > 97 µM
[54]
  TGI: > 76.3 µM
[55]
  TGI: > 73.7 µM
[56]
  TGI: > 100 µM
